Reference: patent US20240261271A1, “APPLICATION OF HYDRONIDONE IN PREPARATION OF DRUG FOR TREATING OR PREVENTING CHRONIC HEPATITIS B WITH LIVER FIBROSIS” (priority 2021, published 2024)
Several values for one entry are separate records, joined by “and”; a condition that tells them apart may be missing. Equal values may be shown once.

System: chronic hepatitis B with hepatic fibrosis
Test: Phase II clinical study: hepatic fibrosis Ishak score by liver biopsy, before and after 52 weeks of treatment on entecavir basic treatment
Type: in vivo, human
Settings: for Ishak score decreased by <1, n(%) / Ishak score decreased by ≥1, n(%): screening period-follow-up 15 (52 weeks); for Rate difference (A-B) % and 95% CI, Ishak score decreased by ≥1 / Rate difference (A-C) % and 95% CI, Ishak score decreased by ≥1 / Rate difference (A-D) % and 95% CI, Ishak score decreased by ≥1: 52 weeks; for Rate difference (A-C) % and 95% CI, Ishak score decreased by ≥1: placebo group minus 180 mg group; for Rate difference (A-D) % and 95% CI, Ishak score decreased by ≥1: placebo group minus 270 mg group
Description: This is a randomized, double-blind, placebo-controlled, multicenter, and dose-finding phase II clinical study with foundational treatment. In the clinical trial, three different dose test groups and a placebo control group were set on the basis of the entecavir capsule antiviral treatment, and the planned sample amount of each group was 60 cases, totaling 240 cases. The three dose test groups were 180 mg group, 270 mg group, and 360 mg group, respectively. […]

[1] = 360 mg group, PPS, 52 weeks of treatment, all subjects
[2] = 360 mg group, PPS, 52 weeks of treatment, baseline Ishak score ≥3
[3] = 360 mg group, PPS, all subjects
[4] = 360 mg group, PPS, baseline Ishak score ≥3
[5] = Group B/C/D combined, FAS, 52 weeks of treatment, baseline Ishak score ≥2
[6] = Group B/C/D combined, FAS, baseline Ishak score ≥2
[7] = Group B/C/D combined, PPS, 52 weeks of treatment, baseline Ishak score ≥2
[8] = Group B/C/D combined, PPS, baseline Ishak score ≥2

Cc1ccc(=O)n(-c2ccc(O)cc2)c1 [hydronidone]
Reversed Ishak score (decreases by ≥1 point compared with the baseline) [1]: 18(52.94) n(%) | Stable Ishak score (unchanged compared with the baseline) [1]: 11 (32.35%) n(%) and 11(32.35) n(%) | Ishak score 0 point, n(%) [2]: 0(0.00) n(%) | Ishak score 1 point, n(%) [2]: 4(16.00) n(%) | Ishak score 2 points, n(%) [2]: 4(16.00) n(%) | Ishak score 3 points, n(%) [2]: 6(24.00) n(%) | Ishak score 4 points, n(%) [2]: 6(24.00) n(%) | Ishak score 5 points, n(%) [2]: 4(16.00) n(%) | Ishak score 6 points, n(%) [2]: 1(4.00) n(%) | Ishak score change, Baseline-52 weeks of treatment, Mean (SD) [3]: 0.68(1.34) | Ishak score change, Baseline-52 weeks of treatment, Median [3]: 1.00 | Ishak score decreased by <1, n(%) [4]: 8(32.00) n(%) | Ishak score decreased by ≥1, n(%) [4]: 17(68.00) n(%) | Rate difference (A-B) % and 95% CI, Ishak score decreased by ≥1 (Group A vs Group B/C/D combined, FAS, baseline Ishak score ≥2): −24.09(−40.50, −4.45) % | Rate difference (A-B) % and 95% CI, Ishak score decreased by ≥1 (Group A vs Group B/C/D combined, PPS, baseline Ishak score ≥2): −32.29(−48.91, −12.08) % | Ishak score 0 point, n(%) [5]: 5(4.95) n(%) | Ishak score 1 point, n(%) [5]: 20(19.80) n(%) | Ishak score 2 points, n(%) [5]: 17(16.83) n(%) | Ishak score 3 points, n(%) [5]: 18(17.82) n(%) | Ishak score 4 points, n(%) [5]: 17(16.83) n(%) | Ishak score 5 points, n(%) [5]: 17(16.83) n(%) | Ishak score 6 points, n(%) [5]: 7(6.93) n(%) | Ishak score decreased by <1, n(%) [6]: 43(42.57) n(%) | Ishak score decreased by ≥1, n(%) [6]: 58(57.43) n(%) | Ishak score 0 point, n(%) [7]: 5(5.75) n(%) | Ishak score 1 point, n(%) [7]: 20(22.99) n(%) | Ishak score 2 points, n(%) [7]: 12(13.79) n(%) | Ishak score 3 points, n(%) [7]: 14(16.09) n(%) | Ishak score 4 points, n(%) [7]: 16(18.39) n(%) | Ishak score 5 points, n(%) [7]: 14(16.09) n(%) | Ishak score 6 points, n(%) [7]: 6(6.90) n(%) | Ishak score decreased by <1, n(%) [8]: 29(33.33) n(%) | Ishak score decreased by ≥1, n(%) [8]: 58(66.67) n(%) | Rate difference (A-C) % and 95% CI, Ishak score decreased by ≥1 (FAS, all subjects): −14.89(−33.32, 4.99) % | Rate difference (A-C) % and 95% CI, Ishak score decreased by ≥1 (FAS, baseline Ishak score ≥3): −18.17(−42.04, 9.11) % | Rate difference (A-C) % and 95% CI, Ishak score decreased by ≥1 (PPS, all subjects): −21.03(−40.20, 0.26) % | Rate difference (A-C) % and 95% CI, Ishak score decreased by ≥1 (PPS, baseline Ishak score ≥3): −23.09(−46.75, 5.09) % | Rate difference (A-D) % and 95% CI, Ishak score decreased by ≥1 (FAS, all subjects): −30.52% and −30.52(−48.12, −9.50) % | Rate difference (A-D) % and 95% CI, Ishak score decreased by ≥1 (FAS, baseline Ishak score ≥3): −28.29(−50.04, −1.45) % | Rate difference (A-D) % and 95% CI, Ishak score decreased by ≥1 (PPS, all subjects): −39.52% and −39.52(−56.83, −17.26) % | Rate difference (A-D) % and 95% CI, Ishak score decreased by ≥1 (PPS, baseline Ishak score ≥3): −36.00(−56.89, −8.38) % | Rate difference (A-B) % and 95% CI, Ishak score decreased by ≥1 (placebo group minus 360 mg group, FAS, all subjects): −18.32(−36.76, 1.96) % | Rate difference (A-B) % and 95% CI, Ishak score decreased by ≥1 (placebo group minus 360 mg group, FAS, baseline Ishak score ≥3): −22.62(−44.98, 3.82) % | Rate difference (A-B) % and 95% CI, Ishak score decreased by ≥1 (placebo group minus 360 mg group, PPS, all subjects): −26.75% and −26.75(−45.78, −4.75) % | Rate difference (A-B) % and 95% CI, Ishak score decreased by ≥1 (placebo group minus 360 mg group, PPS, baseline Ishak score ≥3): −32.00(−53.61, −4.37) % | Rate difference (A-B) % and 95% CI, Ishak score decreased by ≥1 (placebo group vs 270 mg group + 360 mg group, FAS, baseline Ishak score = 6): −65.00(−87.03, −10.74) % | Rate difference (A-B) % and 95% CI, Ishak score decreased by ≥1 (placebo group vs 270 mg group + 360 mg group, FAS, baseline Ishak score ≥3): −25.40(−44.93, −2.00) % | Rate difference (A-B) % and 95% CI, Ishak score decreased by ≥1 (placebo group vs 270 mg group + 360 mg group, FAS, baseline Ishak score ≥4): −23.80(−46.21, 2.59) % | Rate difference (A-B) % and 95% CI, Ishak score decreased by ≥1 (placebo group vs 270 mg group + 360 mg group, FAS, baseline Ishak score ≥5): −15.38(−42.13, 13.79) % | Rate difference (A-B) % and 95% CI, Ishak score decreased by ≥1 (placebo group vs 270 mg group + 360 mg group, PPS, baseline Ishak score = 6): −65.00(−87.03, −10.74) % | Rate difference (A-B) % and 95% CI, Ishak score decreased by ≥1 (placebo group vs 270 mg group + 360 mg group, PPS, baseline Ishak score ≥3): −34.00(−53.15, −10.15) % | Rate difference (A-B) % and 95% CI, Ishak score decreased by ≥1 (placebo group vs 270 mg group + 360 mg group, PPS, baseline Ishak score ≥4): −30.06(−51.94, −3.18) % | Rate difference (A-B) % and 95% CI, Ishak score decreased by ≥1 (placebo group vs 270 mg group + 360 mg group, PPS, baseline Ishak score ≥5): −20.83(−47.05, 8.90) %
